Data: patent US20220087987A1, “A METHOD FOR TREATING SWI/SNF COMPLEX-DEFICIENT CANCERS COMPRISING GLUTATHIONE (GSH) METABOLIC PATHWAY INHIBITOR” (National Cancer Center, priority 2018, published 2022)
Counter-ions that a name gives are not always drawn. Like-named read-outs stand apart in the source and are kept apart here.

Key:
ARID1A-KO HCT116 cells = experiment: Drug library screen, cell viability (CellTiter-Glo); assay type: cell-based, human; conditions: Homo sapiens, HCT-116, 120 h, read-out: Cell viability, KO
Outline: (§1)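 ARID1A-WT and ARID1A-KO HCT116 cells screened against the library; viability read after 5 days by CellTiter-Glo luminescence, expressed relative to DMSO-treated cells. Hits: KO viability below 40% with WT viability above 80%.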

[1] = as above; assay type: cell-based, human; conditions: human; HCT116 ARID1A-WT; 10 μM for 5 days; relative to cells treated with solvent (DMSO); read-out: Cell viability, WT
Outline: as §1

[2] = HCT116 ARID1A-KO, 10 μM for 5 days, relative to cells treated with solvent (DMSO)

| Compound | viability at 10 µM (ARID1A-KO HCT116 cells; [2]) | viability at 5 days, 10 μM [1] | viability [1] | viability at 10 µM (ARID1A-KO HCT116 cells) |
| --- | --- | --- | --- | --- |
| O=c1cc(-c2ccccc2)oc2cc(O)c(O)c(O)c12 [Baicalein] | 93.7% | 94.6% |  |  |
| NC(=O)c1ccccc1 [Benzamide] | 134% | 188% |  |  |
| CC(C)C[C@H](NC(=O)[C@@H](O)[C@H](N)Cc1ccccc1)C(=O)O [Bestatin] | 66.2% | 68.6% |  |  |
| Cc1c[nH]c(-c2cnc(NCCNc3ccc(C#N)cn3)nc2-c2ccc(Cl)cc2Cl)n1 [CT99021] | 73.5% | 63.8% |  |  |
| CC[C@@]1(O)C(=O)OCc2c1cc1n(c2=O)Cc2cc3ccccc3nc2-1 [Camptothecin] | 4.03% | 2.97% |  |  |
| C[C@@]12C(=O)OC(=O)[C@]1(C)[C@H]1CC[C@@H]2O1 [Cantharidin] | 18.2% |  | 26.2% |  |
| C/C=C/C/C=C/CCC(=O)[C@H]1O[C@H]1C(N)=O [Cerulenin] | 68.6% | 70% |  |  |
| CN1C(=O)[C@]2(Cc3cn([C@]45C[C@@]67SS[C@@](CO)(C(=O)N6[C@H]4Nc4ccccc45)N(C)C7=O)c4ccccc34)SS[C@@]1(CO)C(=O)N2C [Chetomin] | 4.69% |  | 4.21% |  |
| CCOC(=O)C(C)(C)Oc1ccc(Cl)cc1 [Clofibrate] | 111% | 110% |  |  |
| C[C@@H]1C[C@@H]([C@H](O)CC2CC(=O)NC(=O)C2)C(=O)[C@@H](C)C1 [Cycloheximide] | 10.1% |  | 9.33% |  |
| COc1c(C=O)c(O)cc2c1C(=O)c1ccccc1C2=O [Damnacanthal] | 138% | 185% |  |  |
| COc1cccc2c1C(=O)c1c(O)c3c(c(O)c1C2=O)C[C@@](O)(C(C)=O)C[C@@H]3O[C@H]1C[C@H](N)[C@H](O)[C@H](C)O1 [Daunorubicin, HCl] |  | 5.21% |  | 4.45% |
| NC1=N/C(=C2/CCNC(=O)c3[nH]ccc32)C(=O)N1 [Debromohymenialdisine (DBH), Debromohymenialdisine] | 72.2% | 62.9% |  |  |
| Nc1ncn([C@H]2C[C@H](O)[C@@H](CO)O2)c(=O)n1 [Decitabine] | 30.4% | 30.8% |  |  |
| CCCCCCCCCCC1=C(C)C(=O)C(OC)=C(OC)C1=O [Decylubiquinone] | 100% | 85.7% |  |  |
| OC[C@H]1NC[C@H](O)[C@@H](O)[C@@H]1O [Deoxynojirimycin] | 121% | 106% |  |  |
| CN(N=O)c1cc(O)ccc1O [Dephostatin] | 60.2% |  | 90.4% |  |
| Cc1cc(N)c2ccccc2[n+]1CCCCCCCCCC[n+]1c(C)cc(N)c2ccccc21 [Dequalinium] | 5.24% | 6.38% |  |  |
| C[C@@H]1C[C@H]2[C@@H]3CCC4=CC(=O)C=C[C@]4(C)[C@@]3(F)[C@@H](O)C[C@]2(C)[C@@]1(O)C(=O)CO [Dexamethasone] | 162% | 212% |  |  |
| O=c1c2ccccc2[nH]c(=S)n1CCN1CCC(=C(c2ccc(F)cc2)c2ccc(F)cc2)CC1 [Diacylglycerol kinase inhibitor II] | 171% | 141% |  |  |
| CC1=NS(=O)(=O)c2cc(Cl)ccc2N1 [Diazoxide] | 115% | 103% |  |  |
| COc1ccc([C@@H]2Sc3ccccc3N(CCN(C)C)C(=O)[C@@H]2OC(C)=O)cc1 [Diltiazem] | 115% | 102% |  |  |
| COc1cccc2c1C(=O)c1c(O)c3c(c(O)c1C2=O)C[C@@](O)(C(=O)CO)C[C@@H]3O[C@H]1C[C@H](N)[C@H](O)[C@H](C)O1 [Doxorubicin, HCl] | 4.14% | 4.81% |  |  |
| Cc1cc(Nc2cc(N3CCN(C)CC3)nc(/C=C/c3ccccc3)n2)n[nH]1 [ENMD-2076] | 10.1% | 9.16% |  |  |
| O=c1oc2c(O)c(O)cc3c(=O)oc4c(O)c(O)cc1c4c23 [Ellagic acid] | 161% | 127% |  |  |
| COc1cc([C@@H]2c3cc4c(cc3[C@@H](O[C@@H]3O[C@@H]5CO[C@@H](C)O[C@H]5[C@H](O)[C@H]3O)[C@H]3COC(=O)[C@H]23)OCO4)cc(OC)c1O [Etoposide (VP-16), Etoposide] | 27.4% | 30.6% |  |  |
| C=CC[C@@H]1/C=C(\C)C[C@H](C)C[C@H](OC)[C@H]2O[C@@](O)(C(=O)C(=O)N3CCCC[C@H]3C(=O)O[C@H](/C(C)=C/[C@@H]3CC[C@@H](O)[C@H](OC)C3)[C@H](C)[C@@H](O)CC1=O)[C@H](C)C[C@@H]2OC [FK-506] | 130% | 173% |  |  |
